Reference: PMC9388626, “STUB1 is an intracellular checkpoint for interferon gamma sensing” (Scientific Reports, 2022)

Experiments:
B16-F10 cells [1] = assay: Flow cytometry, surface level of other cytokine receptors (IL1R1, IL6R, GP130, IFNAR1); type: cell-based, murine
Method: Cells were dissociated from the wells with 0.25% trypsin (Gibco, 25200056). After rinsing with 0.5 ml PBS, each sample was stained with the LIVE/DEAD Fixable Aqua dead cell staining solution (Life Technologies, L34957) in 100 µl PBS (1:1000 dilution) for 15 min at 4 °C. After rinsing with 2 × 0.5 ml PBS, each sample was stained with the corresponding primary antibody-dye conjugates diluted in 100 µl Pharmingen stain buffer (BD Biosciences, #554657). After 1 h staining at 4 °C, the cells were rinsed with 2 × 2 ml Pharmingen stain buffer and fixed with 4.21% (w/w) formaldehyde (BD Biosciences, #554655). Cells were analyzed on LSRFortessa X-20 (BD Biosciences) with appropiate fluorescence compensation. The data were analyzed using FlowJo. Cells were gated based on FSC and SSC. Single cells were selected using FSC-A and FSC-H and viable cells were selected using LIVE/DEAD signal. Primary antibodies used were: H-2K^b/H-2D^b (FITC, Biolegend, #114606, 1:50 dilution), HLA-A,B,C (FITC, Biolegend, #311404, 1:100 dilution), mouse IFNGR1 (PE, Invitrogen, #12-1191-82, 1:50 dilution), human IFNGR1 (PE, Miltenyi, #130-125-851, 1:50 dilution), mouse IL1R1 (APC, Biolegend, #113509, 1:20 dilution), mouse IL6R (APC, Biolegend, #115812, 1:20 dilution), mouse IFNAR1 (APC, Biolegend, #127314, 1:20 dilution), and mouse GP130 (PE, Biolegend, #149404, 1:100 dilution).

B16-F10 cells [2] = assay: Proteomics by mass spectrometry; type: cell-based, murine
Method: After overnight incubation, the culture media were replaced with fresh media (DMEM + 10% FBS) supplemented with 0.03 ng ml^−1 of recombinant mouse IFNγ (R&D Systems, #485-MI-100). After 24 h treatment, the cells were trypsinized, collected and washed twice with 0.5 ml PBS. The cell pellets collected from three independent experiments on separate day were lysed in 100 µl of lysis buffer containing 4% sodium dodecyl sulfate, 50 mM Tris–HCl pH 7.5, 50 µg ml^−1 of DNase (Roche, #10104159001), 50 µg ml^−1 of RNase (Roche, #10109169001) and Halt protease inhibitor cocktail (Thermo Scientific, #78430) on ice for 30 min followed by 65 °C for 30 min. Lysates were clarified by centrifugation at 16,000 g at 10 °C for 30 min. Protein content was re-extracted from the pellet with 50 µl of lysis buffer, sonicated with a single burst using a probe sonicator and heated at 95 °C for 10 min before centrifugation at 16,000 g at 10 °C for 15 min. Lysates from first and second extractions were pooled. Protein concentration was determined using BCA protein assay kit (Pierce, # 23225). Detergent removal and protein digestion were performed in centrifugal suspension trap columns (Protifi, C02-micro) according to the manufacturer’s instructions. Briefly, 80 µg protein extract from each sample was reduced with 50 mM dithiothreitol (Sigma, #43815) at 95 °C for 10 min and then alkylated with 100 mM iodoacetamide (Sigma, I2512) in the dark at ambient temperature for 30 min. The samples were acidified with 1.2% of phosphoric acid and mixed well with washing buffer consisting of 90% methanol and 100 mM ammonium bicarbonate. The samples were transferred to the suspension trap columns and centrifuged at 4000 g for 30 s. The columns were washed 3 times with washing buffer. Proteins trapped in the suspension bed were digested in 50 mM ammonium bicarbonate with trypsin and endoproteinase Lys-C (Promega, V5073) at enzyme to protein ratio 1:25 in a 47 °C waterbath for 2 h. Peptides were eluted firstly with 50 mM ammonium bicarbonate, then with 0.2% formic acid and lastly with 50% acetonitrile and 0.2% formic acid. The eluates were pooled and vacuum dried completely. Dried peptides were reconstituted with 0.1% formic acid in water, followed by injecting 4 µg for mass spectrometry analysis. Peptides were loaded on a reverse phase EASY-Spray column (50 cm × 75 μm inner diameter) operated using Easy-nLC 1200 (Thermo Fisher Scientific) coupled online to a Q-Exactive HF-X mass spectrometer (Thermo Fisher Scientific). Peptides were separated using a 120 min linear gradient at a flow rate of 300 nL min^−1. The Q-Exactive was operated in ‘top-10’ data-dependent acquisition (DDA) mode with full scan acquired at a resolution of 120,000 (scan range 200–1800 m/z) with an automatic gain control (AGC) target of 3e6. The top ten most abundant ions from the full scan were isolated with an isolation width of 0.7 m/z and fragmented by higher energy collisional dissociation (HCD) with normalized collision energy (NCE) of 27. MS/MS scan was acquired at a resolution of 30,000 with an AGC target of 1e5. The default charge state was set at 2 and dynamic exclusion was enabled for 10 s. Maximum ion injection time for full scan and MS/MS scan were 100 ms and 105 ms respectively.
DDA raw files were processed with Proteome Discoverer 2.4 using Sequest HT search engine where mass spectrometric data was searched against SwissProt TaxID 10090 mouse database (v2017-10-25). Percolator was used to validate search results based on the concatenated mode where only the best scoring PSMs (target/decoy) were considered. Trypsin was specified as the enzyme, cleaving after all lysine and arginine residues and allowing up to two missed cleavages. Carbamidomethylation of cysteines was set as fixed modification while variable modifications included oxidation of methionine, acetylation of N-terminus, N-terminal loss of methionine and N-terminal loss of metionine along with the addition of an acetyl group. […]

gStub1 #1 (guide GCATTGCTAAGAAGAAGCGC; chemistry not given here)
Surface GP130 (Fig. 2d) (B16-F10 cells [1]; replicate 1): 1.09
Surface IFNAR1 (Fig. 2d) (B16-F10 cells [1]; replicate 1): 0.74
Surface IL1R1 (Fig. 2d) (B16-F10 cells [1]; replicate 1): 0.96
Surface IL6R (Fig. 2d) (B16-F10 cells [1]; replicate 1): 0.93
Surface GP130 (Fig. 2d) (B16-F10 cells [1]; replicate 2): 1.26
Surface IFNAR1 (Fig. 2d) (B16-F10 cells [1]; replicate 2): 0.87
Surface IL1R1 (Fig. 2d) (B16-F10 cells [1]; replicate 2): 0.97
Surface IL6R (Fig. 2d) (B16-F10 cells [1]; replicate 2): 1.17
Surface GP130 (Fig. 2d) (B16-F10 cells [1]; replicate 3): 1.41
Surface IFNAR1 (Fig. 2d) (B16-F10 cells [1]; replicate 3): 1.30
Surface IL1R1 (Fig. 2d) (B16-F10 cells [1]; replicate 3): 1.05
Surface IL6R (Fig. 2d) (B16-F10 cells [1]; replicate 3): 1.24
Surface GP130 (Fig. 2d) (B16-F10 cells [1]; replicate 4): 1.20
Surface IFNAR1 (Fig. 2d) (B16-F10 cells [1]; replicate 4): 1.03
Surface IL1R1 (Fig. 2d) (B16-F10 cells [1]; replicate 4): 1.02
Surface IL6R (Fig. 2d) (B16-F10 cells [1]; replicate 4): 1.10
Log2(FC) (B16-F10 cells [2]; B2M (Fig. 2g)): 2.591
Log2(FC) (B16-F10 cells [2]; BST2 (Fig. 2g)): 2.607
Log2(FC) (B16-F10 cells [2]; ERAP1 (Fig. 2g)): 2.501
Log2(FC) (B16-F10 cells [2]; GBP2 (Fig. 2g)): 4.916
Log2(FC) (B16-F10 cells [2]; H2-D1 (Fig. 2g)): 1.708
Log2(FC) (B16-F10 cells [2]; IFI35 (Fig. 2g)): 2.548
Log2(FC) (B16-F10 cells [2]; IRGM1 (Fig. 2g)): 4.787
Log2(FC) (B16-F10 cells [2]; MOV10 (Fig. 2g)): 1.934
Log2(FC) (B16-F10 cells [2]; PSME1 (Fig. 2g)): 1.818
Log2(FC) (B16-F10 cells [2]; PSME2 (Fig. 2g)): 2.036
Log2(FC) (B16-F10 cells [2]; STAT1 (Fig. 2g)): 2.521
Log2(FC) (B16-F10 cells [2]; STAT3 (Fig. 2g)): 1.035
Log2(FC) (B16-F10 cells [2]; TGTP1/TGTP2 (Fig. 2g)): 7.1
